Source: patent US11492335B2, “Aryl or heteroaryl triazolone derivatives or salts thereof, or pharmaceutical compositions comprising the same” (YUHAN CORPORATION, priority 2018, dated 2022)
Where a name gives a salt, the structure may show the parent alone.

Assays:
Format in all cases: biochemical
[1] = molecular target: T1, recombinant human MAO-B (monoamine oxidase-B) (Homo sapiens, UniProt P27338); assay: Activity on recombinant human MAO-B, Amplex Red method, 1 mM benzylamine substrate; settings: 1 mM benzylamine, read-out: Inhibitory Activity (IC50, nM) MAO-B
T1 construct: purchased Sigma-Aldrich
T1 sequence (P27338 1-520): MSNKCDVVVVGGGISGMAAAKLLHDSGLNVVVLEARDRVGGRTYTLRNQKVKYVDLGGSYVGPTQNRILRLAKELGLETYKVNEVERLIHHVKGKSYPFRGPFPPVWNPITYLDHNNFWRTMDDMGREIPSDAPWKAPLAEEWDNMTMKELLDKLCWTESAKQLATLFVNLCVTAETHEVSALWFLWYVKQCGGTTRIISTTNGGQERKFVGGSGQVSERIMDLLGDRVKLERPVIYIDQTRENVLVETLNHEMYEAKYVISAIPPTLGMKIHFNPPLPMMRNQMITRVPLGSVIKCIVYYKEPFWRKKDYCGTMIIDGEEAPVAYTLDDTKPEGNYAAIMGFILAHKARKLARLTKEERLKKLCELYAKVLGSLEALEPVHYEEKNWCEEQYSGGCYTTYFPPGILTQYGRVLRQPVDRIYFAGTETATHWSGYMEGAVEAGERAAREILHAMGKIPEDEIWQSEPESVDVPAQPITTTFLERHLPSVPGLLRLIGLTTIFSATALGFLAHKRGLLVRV
Procedure, shortened: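 HRP-coupled Amplex Red H2O2 assay, 50 mM sodium phosphate pH 7.4; compounds (8-point 1:3 series, final DMSO <1%) preincubated with enzyme 30 min at 37° C, then 200 uM Amplex Red, 1 U/mL HRP and substrate (MAO-A 0.5 mM tyramine; MAO-B 1 mM benzylamine) added. Resorufin fluorescence (ex 544/em 590 nm) read over 1-2 h; IC50 from four-parameter logistic fit.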

[2] = molecular target: T2, recombinant human MAO-A (monoamine oxidase-A) (Homo sapiens, UniProt P21397); assay: Activity on recombinant human MAO-A, Amplex Red method, 0.5 mM tyramine substrate; settings: 0.5 mM tyramine, read-out: Inhibitory Activity (IC50, nM) MAO-A
T2 construct: purchased Sigma-Aldrich
T2 sequence (P21397 1-527): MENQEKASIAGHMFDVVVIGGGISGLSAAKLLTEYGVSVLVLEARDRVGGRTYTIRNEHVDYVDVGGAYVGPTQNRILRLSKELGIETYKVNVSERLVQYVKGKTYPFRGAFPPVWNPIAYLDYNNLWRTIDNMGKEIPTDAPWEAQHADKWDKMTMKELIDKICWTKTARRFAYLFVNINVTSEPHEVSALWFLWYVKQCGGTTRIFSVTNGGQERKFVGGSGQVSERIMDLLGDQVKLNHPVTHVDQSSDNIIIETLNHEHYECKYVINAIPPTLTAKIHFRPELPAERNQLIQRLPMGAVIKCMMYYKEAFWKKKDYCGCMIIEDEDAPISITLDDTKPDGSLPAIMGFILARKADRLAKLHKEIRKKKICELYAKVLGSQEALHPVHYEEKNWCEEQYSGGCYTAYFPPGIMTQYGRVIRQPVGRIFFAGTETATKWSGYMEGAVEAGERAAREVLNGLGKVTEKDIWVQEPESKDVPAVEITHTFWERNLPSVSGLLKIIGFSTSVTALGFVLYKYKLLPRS
Protocol: The compounds according to the present technology were evaluated in terms of activity on recombinant human VAP-1 (R&D systems) by measuring the level of hydrogen peroxide in horseradish peroxidase (HRP)-coupled reaction using Amplex Red Hydrogen Peroxide Assay Kit (Molecular Probes, Invitrogen, USA). The experiment was carried out at room temperature using benzylamine as a substrate. In the HRP-coupled reaction, hydrogen peroxide oxidation of 10-acetyl-3,7-dihydroxyphenoxazine (Amplex Red reagent) produces resorufin, which is a highly fluorescent compound. Briefly, the test compound was dissolved in dimethyl sulfoxide (DMSO) at a concentration of 20 mM. The dose-response assessment was made by 1:3 serial dilution in DMSO, thereby creating an 8 point curve. The concentration of the upper part was controlled according to the efficacy of the compounds, followed by dilution with a reaction buffer solution to obtain a final DMSO concentration less than 1%. To each well of a 96 black well plate, human VAP-1 purified in 50 mM sodium phosphate buffer solution (pH7.4) was added. The test compounds dissolved in DMSO were incubated with the human VAP-1 enzymes at 37° C. for 30 minutes. After 30-minute incubation, each well is added with a reaction mixture containing 200 uM Amplex Red reagent prepared from 50 mM sodium phosphate buffer solution (pH 7.4), 1 mM benzylamine, and 1 U/mL HRP. Fluorescence intensity was measured at several time points during 1-2 hours using a microplate reader (Flexstation3, Molecular Devices) under the wavelength condition exciting at 544 nm and reading the emission at 590 nm. The inhibitory effect of the compounds was measured as a decrease (%) in the signal rate as compared to the control group without any inhibitor (only diluted DMSO). Data was fixed to a logistic model with four variables and IC50 value was calculated using GraphPad Prism program.
In addition, the compounds according to the present technology were evaluated in terms of activity on a recombinant human MAO-A (monoamine oxidase-A, Sigma-Aldrich) and a recombinant human MAO-B (monoamine oxidase-B, Sigma-Aldrich) by using as substrates, 0.5 mM tyramine and 1 mM benzylamine, respectively, with a method similar to the activity evaluation method for recombinant human VAP-1. The compounds according to the present technology were also evaluated in terms of activity on a recombinant human DAO (diamine oxidase, R&D systems) by using as a substrate 1 mM putrescine with a method similar to the activity evaluation method for recombinant human VAP-1.

recombinant human VAP-1 = molecular target: T3, recombinant human VAP-1 (Homo sapiens, UniProt Q16853); assay: Activity on recombinant human VAP-1, Amplex Red HRP-coupled hydrogen peroxide assay, benzylamine substrate; settings: recombinant human VAP-1, benzylamine substrate, 30 min preincubation at 37° C.; read-out: Inhibitory Activity (IC50, nM) human VAP-1
T3 construct: purchased R&D systems
T3 sequence (Q16853 1-763): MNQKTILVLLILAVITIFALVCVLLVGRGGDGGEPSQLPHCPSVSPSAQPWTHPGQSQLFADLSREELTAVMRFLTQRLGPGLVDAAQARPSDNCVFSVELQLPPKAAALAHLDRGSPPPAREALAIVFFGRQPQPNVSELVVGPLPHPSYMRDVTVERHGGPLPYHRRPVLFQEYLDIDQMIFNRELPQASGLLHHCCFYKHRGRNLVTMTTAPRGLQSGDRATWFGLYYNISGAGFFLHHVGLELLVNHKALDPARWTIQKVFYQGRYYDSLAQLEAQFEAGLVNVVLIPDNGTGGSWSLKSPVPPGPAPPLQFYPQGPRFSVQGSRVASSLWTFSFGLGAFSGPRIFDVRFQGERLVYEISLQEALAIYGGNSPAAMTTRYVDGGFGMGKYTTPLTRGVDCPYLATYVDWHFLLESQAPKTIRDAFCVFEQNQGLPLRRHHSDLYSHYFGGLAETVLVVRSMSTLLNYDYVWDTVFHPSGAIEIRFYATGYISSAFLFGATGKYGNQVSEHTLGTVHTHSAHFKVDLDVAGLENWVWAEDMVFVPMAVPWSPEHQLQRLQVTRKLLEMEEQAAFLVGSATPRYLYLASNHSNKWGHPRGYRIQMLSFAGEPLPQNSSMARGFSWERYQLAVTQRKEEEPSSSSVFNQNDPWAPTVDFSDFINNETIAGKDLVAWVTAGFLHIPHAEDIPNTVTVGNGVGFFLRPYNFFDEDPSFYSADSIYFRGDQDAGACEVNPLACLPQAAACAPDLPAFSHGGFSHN
Procedure, shortened: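 8-point 1:3 dilutions, final DMSO <1%; 30 min enzyme preincubation, 37 °C, pH 7.4 phosphate. Start: 1 mM benzylamine + 200 uM Amplex Red + 1 U/mL HRP. Read ex544/em590 over 1-2 h; % rate decrease vs DMSO control, 4-parameter logistic IC50.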

[3] = molecular target: T4, recombinant human DAO (diamine oxidase) (Homo sapiens, UniProt P19801); assay: Activity on recombinant human DAO, Amplex Red method, 1 mM putrescine substrate; settings: recombinant human DAO, 1 mM putrescine; * = between 10 and 100 nM, ** = between 300 and 1000 nM; read-out: Inhibitory Activity (IC50, nM) DAO
T4 construct: purchased R&D systems
T4 sequence (P19801 20-751): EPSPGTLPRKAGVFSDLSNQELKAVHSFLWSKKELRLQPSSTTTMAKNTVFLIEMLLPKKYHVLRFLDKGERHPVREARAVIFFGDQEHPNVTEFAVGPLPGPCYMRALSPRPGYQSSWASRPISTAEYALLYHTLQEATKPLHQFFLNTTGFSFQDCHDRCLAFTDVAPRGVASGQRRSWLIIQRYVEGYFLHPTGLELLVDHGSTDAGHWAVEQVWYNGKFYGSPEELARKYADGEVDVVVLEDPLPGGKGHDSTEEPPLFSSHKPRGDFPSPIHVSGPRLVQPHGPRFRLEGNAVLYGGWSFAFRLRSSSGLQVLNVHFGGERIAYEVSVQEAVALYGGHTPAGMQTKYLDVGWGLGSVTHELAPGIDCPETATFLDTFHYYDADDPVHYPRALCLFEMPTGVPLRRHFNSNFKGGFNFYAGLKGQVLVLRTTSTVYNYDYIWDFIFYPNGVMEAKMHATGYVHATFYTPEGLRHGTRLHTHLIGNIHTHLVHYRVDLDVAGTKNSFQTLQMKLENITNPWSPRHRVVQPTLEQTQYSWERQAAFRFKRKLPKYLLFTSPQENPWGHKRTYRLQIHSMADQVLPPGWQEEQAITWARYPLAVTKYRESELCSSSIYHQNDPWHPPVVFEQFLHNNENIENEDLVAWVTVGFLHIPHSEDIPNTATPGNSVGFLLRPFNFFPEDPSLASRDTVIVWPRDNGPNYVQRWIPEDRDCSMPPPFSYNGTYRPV
Procedure, shortened: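 Inhibition of recombinant human DAO (diamine oxidase, R&D systems) was assessed with the Amplex Red Hydrogen Peroxide Assay Kit. Hydrogen peroxide produced from 1 mM putrescine was detected through an HRP-coupled reaction that converts Amplex Red into fluorescent resorufin, read at 544 nm excitation and 590 nm emission. IC50 values came from four-parameter logistic fits in GraphPad Prism.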

Row | IC50 [1] [nM] | IC50 [2] [nM] | IC50 (recombinant human VAP-1) [nM] | IC50 [3] [nM] | Compound
1 | 146 | 12000 | 1.4 | 420 | NC/C(=C\F)Cn1ncn(-c2c(F)cc(Br)cc2F)c1=O [Example 22, 2-[(2E)-2-(aminomethyl)-3-fluoroprop-2-en-1-yl]-4-(4-bromo-2,6-difluorophenyl)-2,4-dihydro-3H-1,2,4-triazol-3-one hydrochloride]
2 | 142 | 5200 | 2.2 | 32 | NC/C(=C\F)Cn1ncn(-c2cc(F)c(Br)cc2F)c1=O [Example 23, 2-[(2E)-2-(aminomethyl)-3-fluoroprop-2-en-1-yl]-4-(4-bromo-2,5-difluorophenyl)-2,4-dihydro-3H-1,2,4-triazol-3-one hydrochloride]
3 | 17 | 6600 | 4.6 | 26 | NC/C(=C/F)Cn1ncn(-c2ccc(Br)nc2)c1=O [Example 24, 2-[(2Z)-2-(aminomethyl)-3-fluoroprop-2-en-1-yl]-4-(6-bromopyridin-3-yl)-2,4-dihydro-3H-1,2,4-triazol-3-one]
4 | 2300 | > 100000 | 2.4 | 25 | NC/C(=C\F)Cn1ncn(-c2ccc(Br)nc2)c1=O [Example 25, 2-[(2E)-2-(aminomethyl)-3-fluoroprop-2-en-1-yl]-4-(6-bromopyridin-3-yl)-2,4-dihydro-3H-1,2,4-triazol-3-one hydrochloride]
5 | 9.4 | > 100000 | 5.3 | 14 | Cc1cc(-n2cnn(C/C(=C\F)CN)c2=O)cnc1Br [Example 26, 2-[(2Z)-2-(aminomethyl)-3-fluoroprop-2-en-1-yl]-4-(6-bromo-5-methylpyridin-3-yl)-2,4-dihydro-3H-1,2,4-triazol-3-one hydrochloride]
6 | 63 | > 100000 | 2.5 | 5.4 | Cc1cc(-n2cnn(C/C(=C/F)CN)c2=O)cnc1Br [Example 27, 2-[(2E)-2-(aminomethyl)-3-fluoroprop-2-en-1-yl]-4-(6-bromo-5-methylpyridin-3-yl)-2,4-dihydro-3H-1,2,4-triazol-3-one hydrochloride]
7 | 28 | 2600 | 1.2 | 25 | NC/C(=C/F)Cn1ncn(-c2ccc(Br)cn2)c1=O [Example 29, 2-[(2Z)-2-(aminomethyl)-3-fluoroprop-2-en-1-yl]-4-(5-bromopyridin-2-yl)-2,4-dihydro-3H-1,2,4-triazol-3-one hydrochloride]
8 | 1700 | 1900 | 0.61 | 13 | NC/C(=C\F)Cn1ncn(-c2ccc(Br)cn2)c1=O [Example 30, 2-[(2E)-2-(aminomethyl)-3-fluoroprop-2-en-1-yl]-4-(5-bromopyridin-2-yl)-2,4-dihydro-3H-1,2,4-triazol-3-one hydrochloride]
9 | 51 | 93000 | 2.2 | > 100000 | Cc1cc(Br)cnc1-n1cnn(C/C(=C/F)CN)c1=O [Example 32, 2-[(2E)-2-(aminomethyl)-3-fluoroprop-2-en-1-yl]-4-(5-bromo-3-methylpyridin-2-yl)-2,4-dihydro-3H-1,2,4-triazol-3-one hydrochloride]
